In patent US20180104264A1, “Method for Preparing Lyophilized Organic Solvent-Free Cyclophosphamide” (KOREA UNITED PHARM. INC., priority 2016, published 2018):

Experiment: Measurement of porosity (KOPTRI)
Type: physicochemical
Text: Porosity measurement for the samples prepared by the present applicant was requested from the Korea Polymer Testing & Research Institute (KOPTRI), an authorized international testing agency.

`O=P1(N(CCCl)CCCl)NCCCO1` (stereo not drawn) [Comparison 4, 2-[bis(2-chloroethyl)amino]tetrahydro-2H-1,3,2-oxazaphosphorin-2-oxide] gave an Apparent density of 1.31 g/mL, a Porosity of 5.24% and an Average diameter (pore size) of 0.02 μm.
